Assay results published in PubChem BioAssay AID1919008 (Molecular Pharmacology Branch, DTP, NCI, 2023).

System: DMS-114 complex spheroids with HUVEC/MSC, growth % test/control
Assay: Anticancer human tumor DMS-114 cell line growth inhibition [AhR];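 also: spheroids exposed to agents for 7 days before readout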;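 as to viability, T/C: 100% = DMSO vehicle control wells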
Details: for IC50: curve of first compound; for viability, T/C: stronger effect = lower value
In short: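 Complex tumor spheroids co-cultured with HUVEC and human MSC stroma; AhR antagonists tested in combination with standard-of-care and investigational agents. Top concentration at or near clinical Cmax (else 10 microM), half-log dilutions; growth expressed as percent test/control.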

## CC1(C)CCC(CN2CCN(c3ccc(C(=O)NS(=O)(=O)c4ccc(NCC5CCOCC5)c([N+](=O)[O-])c4)c(Oc4cnc5[nH]ccc5c4)c3)CC2)=C(c2ccc(Cl)cc2)C1 + Cc1ccccc1N=Nc1ccc(NC(=O)c2ccnn2C)c(C)c1
Second compound 0.1 µM
  IC50: > 10 µM
Second compound 0.316 µM
  IC50: > 10 µM
Second compound 1 µM
  IC50: > 10 µM
Second compound 3.16 µM
  IC50: > 10 µM
Second compound 10 µM
  IC50: > 10 µM
Second compound 0.1 µM, first compound 0.0316 µM
  viability, T/C: 103%
Second compound 0.1 µM, first compound 0.1 µM
  viability, T/C: 100%
Second compound 0.1 µM, first compound 0.316 µM
  viability, T/C: 112%
Second compound 0.1 µM, first compound 1 µM
  viability, T/C: 114%
Second compound 0.1 µM, first compound 3.16 µM
  viability, T/C: 120%
Second compound 0.1 µM, first compound 10 µM
  viability, T/C: 107%
Second compound 0.316 µM, first compound 0.0316 µM
  viability, T/C: 120%
Second compound 0.316 µM, first compound 0.1 µM
  viability, T/C: 112%
Second compound 0.316 µM, first compound 0.316 µM
  viability, T/C: 105%
Second compound 0.316 µM, first compound 1 µM
  viability, T/C: 104%
Second compound 0.316 µM, first compound 3.16 µM
  viability, T/C: 117%
Second compound 0.316 µM, first compound 10 µM
  viability, T/C: 118%
Second compound 1 µM, first compound 0.0316 µM
  viability, T/C: 105%
Second compound 1 µM, first compound 0.1 µM
  viability, T/C: 107%
Second compound 1 µM, first compound 0.316 µM
  viability, T/C: 113%
Second compound 1 µM, first compound 1 µM
  viability, T/C: 111%
Second compound 1 µM, first compound 3.16 µM
  viability, T/C: 117%
Second compound 1 µM, first compound 10 µM
  viability, T/C: 102%
Second compound 3.16 µM, first compound 0.0316 µM
  viability, T/C: 99.8%
Second compound 3.16 µM, first compound 0.1 µM
  viability, T/C: 104%
Second compound 3.16 µM, first compound 0.316 µM
  viability, T/C: 103%
Second compound 3.16 µM, first compound 1 µM
  viability, T/C: 110%
Second compound 3.16 µM, first compound 3.16 µM
  viability, T/C: 114%
Second compound 3.16 µM, first compound 10 µM
  viability, T/C: 105%
Second compound 10 µM, first compound 0.0316 µM
  viability, T/C: 104%
Second compound 10 µM, first compound 0.1 µM
  viability, T/C: 102%
Second compound 10 µM, first compound 0.316 µM
  viability, T/C: 101%
Second compound 10 µM, first compound 1 µM
  viability, T/C: 104%
Second compound 10 µM, first compound 3.16 µM
  viability, T/C: 101%
Second compound 10 µM, first compound 10 µM
  viability, T/C: 87.1%

## CCN(c1cc(-c2ccc(CN3CCOCC3)cc2)cc(C(=O)NCc2c(C)cc(C)[nH]c2=O)c1C)C1CCOCC1 + Cc1ccccc1N=Nc1ccc(NC(=O)c2ccnn2C)c(C)c1
Second compound 0.1 µM
  IC50: > 3 µM
Second compound 0.316 µM
  IC50: > 3 µM
Second compound 1 µM
  IC50: > 3 µM
Second compound 3.16 µM
  IC50: > 3 µM
Second compound 10 µM
  IC50: > 3 µM
Second compound 0.1 µM, first compound 0.00949 µM
  viability, T/C: 97.5%
Second compound 0.1 µM, first compound 0.03 µM
  viability, T/C: 105%
Second compound 0.1 µM, first compound 0.0949 µM
  viability, T/C: 111%
Second compound 0.1 µM, first compound 0.3 µM
  viability, T/C: 114%
Second compound 0.1 µM, first compound 0.949 µM
  viability, T/C: 101%
Second compound 0.1 µM, first compound 3 µM
  viability, T/C: 102%
Second compound 0.316 µM, first compound 0.00949 µM
  viability, T/C: 105%
Second compound 0.316 µM, first compound 0.03 µM
  viability, T/C: 101%
Second compound 0.316 µM, first compound 0.0949 µM
  viability, T/C: 104%
Second compound 0.316 µM, first compound 0.3 µM
  viability, T/C: 113%
Second compound 0.316 µM, first compound 0.949 µM
  viability, T/C: 108%
Second compound 0.316 µM, first compound 3 µM
  viability, T/C: 100%
Second compound 1 µM, first compound 0.00949 µM
  viability, T/C: 108%
Second compound 1 µM, first compound 0.03 µM
  viability, T/C: 101%
Second compound 1 µM, first compound 0.0949 µM
  viability, T/C: 110%
Second compound 1 µM, first compound 0.3 µM
  viability, T/C: 110%
Second compound 1 µM, first compound 0.949 µM
  viability, T/C: 112%
Second compound 1 µM, first compound 3 µM
  viability, T/C: 98.8%
Second compound 3.16 µM, first compound 0.00949 µM
  viability, T/C: 108%
Second compound 3.16 µM, first compound 0.03 µM
  viability, T/C: 104%
Second compound 3.16 µM, first compound 0.0949 µM
  viability, T/C: 110%
Second compound 3.16 µM, first compound 0.3 µM
  viability, T/C: 102%
Second compound 3.16 µM, first compound 0.949 µM
  viability, T/C: 107%
Second compound 3.16 µM, first compound 3 µM
  viability, T/C: 105%
Second compound 10 µM, first compound 0.00949 µM
  viability, T/C: 106%
Second compound 10 µM, first compound 0.03 µM
  viability, T/C: 104%
Second compound 10 µM, first compound 0.0949 µM
  viability, T/C: 102%
Second compound 10 µM, first compound 0.3 µM
  viability, T/C: 108%
Second compound 10 µM, first compound 0.949 µM
  viability, T/C: 103%
Second compound 10 µM, first compound 3 µM
  viability, T/C: 102%
